The target of one experiment is T1, Neutrophil elastase (Homo sapiens, UniProt P08246).
T1 sequence (P08246 whole entry): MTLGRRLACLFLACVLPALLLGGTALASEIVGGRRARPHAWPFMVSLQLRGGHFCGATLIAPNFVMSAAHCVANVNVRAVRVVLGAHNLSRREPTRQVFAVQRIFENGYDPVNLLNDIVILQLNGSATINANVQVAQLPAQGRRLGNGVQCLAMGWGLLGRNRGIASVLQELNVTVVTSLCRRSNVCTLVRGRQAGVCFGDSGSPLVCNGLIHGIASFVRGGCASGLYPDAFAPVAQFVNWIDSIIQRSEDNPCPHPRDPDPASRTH
The experiment is described as follows: The compound was evaluated in vitro for the inhibition of human leukocyte elastase(HLE).

The target in experiment [1] is T2, Neutrophil elastase (Homo sapiens) (UniProt P08246).
T2 sequence (whole entry): T1 sequence (P08246 whole entry)
Briefly: The compound was evaluated in vitro for the inhibition of human leukocyte elastase(HLE); Not Active.

Experiment [2] deals with T3, Chymotrypsin-like elastase family member 2A (Sus scrofa) (UniProt P08419).
T3 sequence (whole entry): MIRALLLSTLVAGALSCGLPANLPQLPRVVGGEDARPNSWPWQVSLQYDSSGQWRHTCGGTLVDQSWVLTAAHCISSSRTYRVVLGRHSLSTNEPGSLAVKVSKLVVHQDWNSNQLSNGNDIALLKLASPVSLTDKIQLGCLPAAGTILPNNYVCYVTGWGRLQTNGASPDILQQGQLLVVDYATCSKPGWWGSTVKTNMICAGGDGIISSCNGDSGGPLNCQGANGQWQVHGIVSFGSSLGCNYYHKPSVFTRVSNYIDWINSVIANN
Briefly: The compound was evaluated in vitro for the inhibition of Pancreatic elastase (PPE); Not Active.

The structures appear in SMILES notation. The source made the active and inactive calls. The calls are words filed in the database; no cut-off is given here.

We go through 20 molecules from ChEMBL document CHEMBL1127150, “Enantioselective synthesis and antielastase activity of 1,3,4-trisubstituted and 3,4-disubstituted -lactam antibiotics” (Bioorg Med Chem Lett, 1993).

In turn, `CCCC[C@@H]1C(=O)N(C(C)=O)[C@@H]1C(C)=O` had a 50% inhibitory concentration (IC50) against Neutrophil elastase of 45 µM.
In the case of `CO[C@@H]1C(=O)N[C@@H]1/C(C)=C/c1ccccc1`, the outcome in experiment [1] and in experiment [2] was inactive.
With `CO[C@H]1C(=O)N[C@H]1/C=C/c1ccccc1`, the result in experiment [1] and in experiment [2] was inactive.
As to `CO[C@H]1C(=O)N([C@@H](C2SCCCS2)C2OC(C)(C)OC2C2COC(C)(C)O2)[C@H]1/C=C/c1ccccc1` (stereo not given in full), at Neutrophil elastase, the IC50 was 76 µM.
On the same count and under the same terms, under `CO[C@@H]1C(=O)N(C(C)=O)[C@@H]1/C(C)=C/c1ccccc1` stands 1.4 µM.
In the case of `CO[C@@H]1C(=O)N[C@@H]1OC(C)=O`, the outcome in experiment [1] and in experiment [2] was inactive.
Regarding `CO[C@@H]1C(=O)N[C@@H]1/C=C/c1ccccc1`, the outcome in experiment [1] and in experiment [2] was inactive.
Turning to `CCCC[C@@H]1C(=O)N(C(C)=O)[C@@H]1/C(C)=C/c1ccccc1`, at Neutrophil elastase, the midpoint of inhibition, the IC50, lay at 43 µM.
Still for that read-out and setting: under `CO[C@@H]1C(=O)N(C(C)=O)[C@@H]1C(C)=O` stands 94 µM.
Consider `CCCC[C@@H]1C(=O)N[C@@H]1C(C)=O`, for which the result in experiment [1] and in experiment [2] was inactive.
The molecule `CCCC[C@@H]1C(=O)N([C@@H](C2SCCCS2)C2OC(C)(C)OC2C2COC(C)(C)O2)[C@@H]1/C(C)=C/c1ccccc1` (stereo not given in full) yielded an IC50 on Neutrophil elastase of 11 µM.
The molecule `O=c1oc(Cl)c(Cl)c2ccccc12` showed a half-maximal inhibitory concentration (IC50) at Neutrophil elastase of 0.1 µM.
In the case of `CO[C@H]1C(=O)N[C@H]1c1ccccc1`, the result in experiment [1] and in experiment [2] was inactive.
Molecule `CO[C@@H]1C(=O)N(C(C)=O)[C@@H]1c1ccccc1` gave an IC50 on Neutrophil elastase of 1.6 µM.
At Neutrophil elastase, `CO[C@@H]1C(=O)N([C@@H](C2SCCCS2)C2OC(C)(C)OC2C2COC(C)(C)O2)[C@@H]1/C(C)=C/c1ccccc1` (stereo not given in full) gave an IC50 of 18 µM.
The molecule `CCCC[C@H]1C(=O)N([C@@H](C2SCCCS2)C2OC(C)(C)OC2C2COC(C)(C)O2)[C@H]1/C(C)=C/c1ccccc1` (stereo not given in full) displayed a 50% inhibitory concentration (IC50) against Neutrophil elastase of 13 µM.
On to `CO[C@@H]1C(=O)N[C@@H]1c1ccccc1`, for which the result in experiment [1] and in experiment [2] was inactive.
Turning to `CCCC[C@@H]1C(=O)N[C@@H]1/C(C)=C/c1ccccc1` (stereo in doubt; 11), the outcome in experiment [1] and in experiment [2] was inactive.
`CCCC[C@@H]1C(=O)N[C@@H]1/C(C)=C/c1ccccc1` (stereo in doubt; 10): the outcome in experiment [1] and in experiment [2] was inactive.
Take `CO[C@@H]1C(=O)N[C@@H]1C(C)=O`: the outcome in experiment [1] and in experiment [2] was inactive.
